Data reported in patent US10493042B2, “Method for preventing or treating diabetes mellitus, and method for screening for diabetes mellitus therapeutic agent” (UNIVERSITY-INDUSTRY COOPERATION GROUP OF KYUNG HEE …, priority 2013, dated 2019).

Legend:
[1] = system: db/db mouse, type II diabetes mellitus model; test: Plasma GLP-1 and insulin after gavage and glucose (multiplex assay); format: in vivo; conditions: oral administration, glucose 2 g/weight Kg, compared with PBS group
Protocol: By using the same method in Example 2 (1), db/db mice of fasted state were each gavaged with geraniol, metformin, or saline. Then, each group were administered with glucose of 2 g/weight Kg. after 10 minutes, 20 minutes, 30 minutes, and 40 minutes elapsed, the amount of GLP-1 and insulin in plasma were measured by using multiplex assay (available from Bio-Rad, USA), based on the user manual, and Bio-Plex MAGPIX multiplex reader (available from Bio-Rad, USA).

NCI-H716 cell [2] = test: GLP-1 secretion in human enteroendocrine cell (ELISA); format: cell-based; conditions: 10, 20, 50, 100, 200, 500, 1000 and 2000 μM, 1 hour, FIG. 1A
Protocol: A NCI-H716 cell, i.e., a human enteroendocrine cell, was obtained from Korean Cell Line Bank. The obtained cell was culture in RPMI 1640 medium until the number of obtained cells increased in a proper amount. Then. the cells were moved to a matrigel-coated plate, and then cultured in DMEM medium for 48 hours, for endocrine differentiation.
Geraniol and nerol were purchased from Signa-Aldrich, USA.
Human enteroendocrine cells were each treated with geraniol at a concentration of 10, 20, 50, 100, 200, 500, 1000, and 2000 μM, respectively, and then cells were cultured for 1 hour. A human enteroendocrine cell was treated with nerol, which is an isomer of geraniol, as a comparison group, i.e., a negative control group, under the same condition as in the treating with geraniol.
GLP-1 secretion from the cell treated with geraniol and the cell treated with nerol were identified using enzyme-linked immunosorbent assay (ELISA). ELISA was carried out using a GLP-1 ELISA kit, available from Millipore, based on the user manual. The amount of GLP-1 secretion was measured using a fluoroskan ascent microplate reader (Thermo Electron Corp., Finland).

NCI-H716 cell [3] = test: Cell viability MTT assay; format: cell-based, human; conditions: 10 μM to 1000 μM, 1 hour, compared with PBS, FIG. 8
Protocol: In order to verify cytotoxicity of geraniol on a human enteroendocrine cell, MTT assay was carried out as follows. In detail, cell viability assay was carried out using 3-(4,5-dimethylthiazol-2-yl)-2,5-diphenyltetrazolium) bromide (MTT) (available from Invitrogen, Carlsbad, Calif., USA). An endocrine cell, a NCI-H716 cell, was treated with geraniol of different levels of concentration and 6 mM MTT for 1 hour. Dimethyl sulfoxide (DMSO) was added to the cells, and absorbance thereof was measured using Bio-Rad model 680 microplated reader (Bio-Rad, Hercules, Calif., USA) at 540 nm.

[4] = system: human enteroendocrine cell; test: Change amount of cAMP in human enteroendocrine cell (cAMP ELISA); format: cell-based; conditions: 100 μM geraniol, FIG. 3
Protocol: In a human enteroendocrine cell, the result of geraniol treatment (100 μM) and forskolin treatment (10 μM), which is a cAMP activator, were compared with each other.

olfactory receptor OR1A1 = target: T1, olfactory receptor OR1A1 (Homo sapiens, UniProt Q9P1Q5); test: GLP-1 secretion by geraniol in enteroendocrine cell with OR1A1 knocked-down by siRNA; format: cell-based; conditions: 100 μM, 1 hour, OR1A1 knocked-down vs normal cell, FIG. 1B
T1 construct: endogenous in cells; host or cells: human enteroendocrine cell (NCI-H716 named)
T1 sequence (Q9P1Q5 1-309): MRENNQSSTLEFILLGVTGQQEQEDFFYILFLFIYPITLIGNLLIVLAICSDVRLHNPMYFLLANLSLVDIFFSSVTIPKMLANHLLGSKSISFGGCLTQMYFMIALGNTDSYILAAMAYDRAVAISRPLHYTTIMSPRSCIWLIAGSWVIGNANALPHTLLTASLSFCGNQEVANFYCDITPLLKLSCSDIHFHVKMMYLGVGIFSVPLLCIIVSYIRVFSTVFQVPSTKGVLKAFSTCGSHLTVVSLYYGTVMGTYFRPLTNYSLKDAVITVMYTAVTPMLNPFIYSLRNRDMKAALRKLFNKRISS
Protocol: (§1) In a human enteroendocrine cell, in which an olfactory receptor is knocked-down by small-interference RNA (siRNA), an olfactory receptor signal transduction mechanism was identified.
(§2) Human enteroendocrine cells in which olfactory receptors OR1A1 and OR1G1 were knocked-down by siRNAs, respectively, were cultured. SiRNAs for knocking-down OR1A1 (SEQ ID NO. 1 and 2, siRNA No. 1108058) and OR1G1 (SEQ ID NO. 3 and 4, siRNA No. 1108121) are available from Bioneer Co. (South Korea). Lipofectamine 2000 (available from Life technology, USA) was used to carry out intracellular transfection, based on the user manual.
(§3) The human enteroendocrine cells in which olfactory receptors were knocked-down and a normal human enteroendocrine cell were each treated with geraniol at a concentration of 100 μM. Then, the cells were cultured for 1 hour at 37° C. at a concentration of 5% CO2. Thereafter, GLP-1 secretion was identified using ELISA.

[5] = system: db/db mouse, type II diabetes mellitus model; test: Oral glucose tolerance test after gavage; format: in vivo
Protocol: Oral glucose tolerance test was performed on a db/db mouse (leptin receptor knocked-out mice) (35 g to 39 g), which is a type II diabetes mellitus model. A male 6 week-old db/db mouse was purchased from Daehan Biolink Co., Ltd (DBL, South Korea). A fasting blood sugar level of a db/db mouse of 18 hour-gastric emptying fasted state was measured. Then, the experimental group and the control group were each oral administered with geraniol and metformin, and saline via gavage. Geraniol was administered at 150 or 500 mg/weight Kg, and metformin was administered at 300 mg/weight Kg. Then, each group was administered with glucose of 5 g/weight Kg. Oral glucose tolerance test (OGTT) was performed after 10 minutes, 20 minutes, 40 minutes, 90 minutes, and 120 minutes elapsed.

olfactory receptor OR1G1 = target: T2, olfactory receptor OR1G1 (Homo sapiens, UniProt P47890); test: GLP-1 secretion by geraniol in enteroendocrine cell with OR1G1 knocked-down by siRNA; format: cell-based; conditions: 100 μM, 1 hour, OR1G1 knocked-down vs normal cell, FIG. 1C
T2 construct: endogenous in cells; host or cells: human enteroendocrine cell (NCI-H716 named)
T2 sequence (P47890 1-313): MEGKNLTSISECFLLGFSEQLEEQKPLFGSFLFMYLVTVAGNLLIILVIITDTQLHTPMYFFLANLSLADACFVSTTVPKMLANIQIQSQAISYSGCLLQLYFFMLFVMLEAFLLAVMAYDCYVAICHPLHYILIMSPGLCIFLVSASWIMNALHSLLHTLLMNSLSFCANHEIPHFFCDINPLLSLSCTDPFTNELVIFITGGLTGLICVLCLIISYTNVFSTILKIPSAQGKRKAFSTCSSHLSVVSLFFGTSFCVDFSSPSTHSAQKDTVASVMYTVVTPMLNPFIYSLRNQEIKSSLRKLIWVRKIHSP
Protocol: as §1, §2, §3

[6] = system: human enteroendocrine cell; test: Change of calcium concentration in human enteroendocrine cell; format: cell-based; conditions: 100 μM, treated after 1 minute elapsed from the start of the experiment, FIG. 2
Description: FIG. 2 is a graph showing the change of calcium concentration in a human enteroendocrine cell after geraniol treatment.

[7] = system: db/db mouse, type II diabetes mellitus model; test: Oral glucose tolerance test with geraniol smelling (olfactory stimulation); format: in vivo
Protocol: A male 6 week-old db/db mouse was purchased from Daehan Biolink Co., Ltd (DBL, South Korea). A fasting blood sugar level of a db/db mouse of 18 hour-gastric emptying fasted state was measured. Then, the experimental group was stimulated (smelling) with geraniol through olfaction. The control group was oral administered with saline and metformin of 300 mg/weight Kg via gavage. Then, each of the experimental group and the control group were administered with glucose of 2 g/weight Kg. After 10 minutes, 20 minutes, 40 minutes, 90 minutes, and 120 minutes elapsed, the amount of GLP-1 in plasma was verified by using multiplex assay (available from Bio-Rad, USA).

Compound	plasma GLP-1 ([1]; FIG. 6A, 6C)	plasma insulin ([1]; FIG. 6B, 6D)	GLP-1 secretion promoting effect (NCI-H716 cell [2])	cytotoxicity (cell viability, MTT) (NCI-H716 cell [3])	time after treatment at which concentration of cAMP in the cell was the highest [4] [min]	GLP-1 secretion via stimulation of OR1A1 (olfactory receptor OR1A1)	hypoglycemic effect at oral glucose tolerance test ([5]; gavage 150 or 500 mg/weight Kg, glucose 5 g/weight Kg, compared with saline group, FIG. 5A-5C)	hypoglycemic effect compared with metformin ([5]; geraniol gavage 150 or 500 mg/weight Kg vs metformin 300 mg/weight Kg)	GLP-1 secretion via stimulation of OR1G1 (olfactory receptor OR1G1)	time at which calcium concentration in the cell was the highest [6] [min]	blood sugar level ([7]; geraniol smelling (olfactory stimulation), FIG. 9)	amount of GLP-1 in plasma ([7]; geraniol smelling, 10 minutes after glucose 2 g/weight Kg, vs metformin 300 mg/weight Kg oral, FIG. 10)
CC(C)=CCC/C(C)=C/CO [geraniol]	secretion inducing of GLP-1	additional insulin	dose-dependently promotes GLP-1 secretion	found not to have cytotoxicity	30	stimulates OR1A1, an olfactory receptor, promoting GLP-1 secretion	exhibited hypoglycemic effect	comparable to metformin	stimulates OR1G1, an olfactory receptor, promoting GLP-1 secretion	4	lowered the blood sugar level	increased more than the case of metformin administration
CC(C)=CCC/C(C)=C\CO [nerol, reference compound]			had no GLP-1 secretion promotion effect									
